Laboratory results reported in ChEMBL document CHEMBL1151292, “Antineoplastic activity and cytotoxicity of flavones, isoflavones, and flavanones” (1979).
≈ marks a conversion by molar mass, not a printed value. Calls of active or inactive are those of the source.

Key:
L1210 = experiment: In vivo antitumor activity against mouse L1210 cells; assay type: functional, organism-based
Walker 256 = experiment: In vivo antitumor activity against rat Walker 256 cells; assay type: functional, organism-based
CCRF S-180 = experiment: In vivo antitumor activity against mouse S180 cells; assay type: functional, organism-based
[1] = test system: Lewis lung carcinoma cell line; experiment: In vivo antitumor activity against mouse LLC cells; assay type: functional, organism-based
CA-755 = experiment: In vivo antitumor activity against mouse CA-755 cells; assay type: functional, organism-based
KB = experiment: Cytotoxicity against human KB cells; assay type: functional; settings: read-out: ED50 (the source's name)
FV = experiment: In vivo antitumor activity against mouse FV cells; assay type: functional, organism-based
P388 = experiment: In vivo antitumor activity against mouse P388 cells; assay type: functional, organism-based

Row | SMILES | Activity (L1210) | Activity (Walker 256) | Activity (CCRF S-180) | Activity [1] | Activity (CA-755) | EC50 (KB) [µg/mL] | Activity (FV) | Activity (P388)
1 | O=c1c(O)c(-c2ccc(Cl)cc2)oc2ccccc12 | inactive | inactive |  |  |  |  |  | 
2 | C[C@@H]1O[C@@H](OC[C@H]2O[C@@H](Oc3c(-c4ccc(O)c(O)c4)oc4cc(O)cc(O)c4c3=O)[C@H](O)[C@@H](O)[C@@H]2O)[C@H](O)[C@H](O)[C@H]1O | inactive | Active | inactive | inactive | inactive |  |  | 
3 | COc1ccc(-c2cc(=O)c3ccccc3o2)c(OC)c1OC | inactive |  | inactive | inactive | inactive | 13 (≈ 41.6 µM) |  | 
4 | C[C@@H]1O[C@@H](Oc2c(-c3cc(O)c(O)c(O)c3)oc3cc(O)cc(O)c3c2=O)[C@H](O)[C@H](O)[C@H]1O | inactive |  | inactive | inactive | inactive | 8.3 (≈ 17.9 µM) |  | 
5 | COc1ccc(-c2cc(=O)c3c(OC)c(OC)c(OC)c(OC)c3o2)cc1OC [NOBILETIN] |  | inactive |  | inactive |  | 3 (≈ 7.46 µM) |  | 
6 | COc1cc(O)c2c(=O)c(O[C@@H]3O[C@H](CO[C@@H]4O[C@@H](C)[C@H](O)[C@@H](O[C@@H]5O[C@@H](C)[C@H](O)[C@@H](O)[C@H]5O)[C@H]4O)[C@@H](O)[C@H](O)[C@H]3O)c(-c3ccc(O)c(O)c3)oc2c1 | inactive |  | inactive | inactive | inactive | 8.5 (≈ 11 µM) |  | 
7 | O=c1cc(-c2ccc(F)cc2)oc2ccccc12 | inactive |  | inactive | inactive |  |  |  | 
8 | O=c1c(-c2ccc3c(c2)OCO3)coc2cc(O)ccc12 | inactive | inactive |  |  |  |  |  | 
9 | COc1cc2c(=O)cc(-c3ccc(O)cc3)oc2c(OC)c1OC |  | Active | inactive | inactive |  | 0.7 (≈ 2.13 µM) | Active | 
10 | COc1ccc(-c2oc3cc(O)cc(O)c3c(=O)c2OC)cc1O |  |  |  |  |  | 2 (≈ 6.06 µM) |  | inactive
11 | COc1cc(OC)c(-c2oc3ccccc3c(=O)c2O)cc1OC | inactive |  | inactive |  |  | 5 (≈ 15.2 µM) | inactive | 
12 | COc1ccc(-c2oc3cc(OC)ccc3c(=O)c2O)cc1 | inactive |  |  | inactive | inactive |  |  | 
13 | COc1ccc(OC)c(-c2cc(=O)c3c(OC)c(OC)c(OC)c(OC)c3o2)c1 |  |  | inactive |  |  | 4 (≈ 9.94 µM) | Active | 
14 | COc1cc(OC)cc(-c2cc(=O)c3c(OC)c(OC)c(OC)c(OC)c3o2)c1 |  |  | inactive | inactive |  | 3 (≈ 7.46 µM) | Active | 
15 | Cc1oc2cc(O)ccc2c(=O)c1-c1ccccc1 | inactive | inactive |  |  |  |  |  | 
16 | O=c1c(O)c(-c2ccc(O)cc2O)oc2cc(O)cc(O)c12 | inactive |  | inactive |  | inactive |  |  | inactive
17 | COc1ccc(-c2cc(=O)c3c(O)cc(OC)cc3o2)cc1 [APIGENIN DIMETHYLETHER] | inactive |  | inactive | inactive |  | 45 (≈ 151 µM) |  | inactive
18 | CCOC1(O)C(=O)c2ccccc2OC1(OCC)c1ccccc1 (centres undefined) | inactive | inactive |  |  |  |  |  | 
19 | O=c1cc(-c2cccc(F)c2)oc2ccccc12 | inactive |  | inactive | inactive |  |  |  | 
20 | COc1ccc(-c2oc3cc(O)c(OC)c(O)c3c(=O)c2OC)cc1O [CENTAUREIDIN] |  |  |  |  |  | 0.4 (≈ 1.11 µM) |  | inactive
21 | COc1cc2occ(-c3ccc(O)cc3)c(=O)c2c(OC)c1O |  |  |  |  |  |  | inactive | 
22 | O=c1c(O[C@@H]2O[C@H](CO)[C@@H](O)[C@H](O)[C@H]2O)c(-c2ccc(O)c(O)c2)oc2cc(O)cc(O)c12 [ISOQUERCETIN] | inactive | inactive | inactive |  | inactive | > 100 |  | inactive
23 | COc1ccc2c(c1)C(=O)C(O)(OC)C(OC)(c1ccccc1)O2 (centres undefined) | inactive | inactive |  |  |  |  |  | 
24 | COc1c(OC)c(OC)c2c(=O)cc(-c3ccc4c(c3)OCO4)oc2c1OC |  | inactive |  |  |  |  |  | 
25 | COc1ccc2c(=O)c(C)c(-c3ccccc3)oc2c1 | inactive |  | inactive |  |  | 43 (≈ 161 µM) | Active | 
26 | CCOC(=O)c1oc2cc(O)cc(O)c2c(=O)c1-c1ccc(OC)cc1 | inactive |  | inactive | Active |  | 21 (≈ 58.9 µM) |  | 
27 | COc1ccc(-c2coc3c(OC)c(OC)c(OC)c(OC)c3c2=O)cc1 |  |  |  |  |  |  | Active | 
28 | O=c1cc(-c2ccccc2)oc2ccc(O)cc12 [6-HYDROXYFLAVONE] |  | inactive | inactive | Active |  | 18 (≈ 75.6 µM) |  | 

Row | SMILES | Activity (L1210) | Activity (Walker 256) | Activity (CCRF S-180) | Activity [1] | Activity (CA-755) | EC50 (KB) [µg/mL] | Activity (FV) | Activity (P388)
29 | CCOc1ccc(-c2coc3cc(C)c(OCC)c(C)c3c2=O)cc1 |  |  |  |  |  |  | inactive | 
30 | O=C1c2cc(O)c(O)cc2OC(c2ccc(O)c(O)c2)C1O (centres undefined) | inactive |  | inactive |  |  |  |  | inactive
31 | COc1ccc(-c2oc3ccc(C)cc3c(=O)c2O)cc1 | inactive |  | inactive | inactive | inactive | 2 (≈ 7.08 µM) |  | 
32 | COc1ccccc1-c1cc(=O)c2ccc(OC)c(OC)c2o1 | inactive |  | inactive | inactive | inactive | 4 (≈ 12.8 µM) |  | 
33 | Nc1c(-c2ccccc2)oc2ccc(Cl)cc2c1=O | inactive |  | inactive |  |  | > 100 | inactive | 
34 | O=C1CC(c2ccccc2)Oc2ccccc21 (centres undefined) | inactive |  | inactive |  | inactive |  | inactive | 
35 | COc1ccc(-c2coc3cc(OC)c(OC)c(OC)c3c2=O)cc1 |  |  | inactive |  |  | 34 (≈ 99.3 µM) | Active | 
36 | COc1ccc(-c2cc(=O)c3c(O)cc(O)cc3o2)cc1 [ACACETIN] | inactive |  | inactive |  | inactive | > 100 |  | inactive
37 | COc1ccc(C2(OC)Oc3ccccc3C(=O)C2(O)O)cc1 (centres undefined) | inactive | inactive |  |  |  |  |  | 
38 | O=c1cc(-c2ccccc2)oc2cc(O)cc(O)c12 [CHRYSIN] | inactive | inactive |  |  |  | 13 (≈ 51.1 µM) |  | 
39 | COc1ccc(-c2cc(=O)c3c(O)c(OC)c(O)cc3o2)cc1 [PECTOLINARIGENIN] | inactive | inactive | inactive |  |  | 3 (≈ 9.55 µM) |  | inactive
40 | O=C1c2ccc(O)cc2OC(c2ccc(O)c(O)c2)C1O (centres undefined) | inactive |  | inactive | inactive | inactive |  |  | 
41 | O=c1cc(-c2ccccc2)oc2cccc(O)c12 [5-HYDROXYFLAVONE] |  | Active | inactive | inactive |  | 20 (≈ 83.9 µM) |  | 
42 | COc1ccc(-c2cc(=O)c3cc(OC)c(OC)c(OC)c3o2)cc1 |  | inactive | inactive | inactive |  | 5 (≈ 14.6 µM) | inactive | 
43 | O=c1cc(-c2ccccc2)oc2cc(O)ccc12 | inactive |  | inactive | inactive |  |  |  | 
44 | COC1(O)C(=O)c2ccccc2OC1(OC)c1ccc(C)cc1 (centres undefined) | inactive | inactive |  |  |  |  |  | 
45 | O=c1c(O)c(-c2ccc(O)c(O)c2)oc2cc(O)cc(O)c12 [QUERCETIN] |  | Active |  |  |  | 25 (≈ 82.7 µM) |  | 
46 | O=C1c2c(O)cc(O)cc2OC(c2ccc(O)c(O)c2)C1O (centres undefined) [TAXIFOLIN] |  | inactive | inactive |  | inactive | 40 (≈ 131 µM) |  | 
47 | O=c1cc(-c2ccc(O)cc2)oc2c(O)c(O)c(O)cc12 |  | inactive |  | inactive |  | 22 (≈ 76.9 µM) |  | 
48 | COc1ccc(C2(OC)Oc3cc(OC)ccc3C(=O)C2(O)OC)cc1 (centres undefined) | inactive | inactive |  |  |  |  |  | 
49 | COc1c(OC)c(OC)c2c(=O)cc(-c3ccc(OC(C)=O)cc3)oc2c1OC |  |  | inactive | inactive | inactive | 3 (≈ 7.49 µM) |  | 
50 | O=c1c(O)c(-c2ccc(O)c(O)c2)oc2cc(O)ccc12 [FISETIN] | inactive |  | inactive | inactive |  | > 100 |  | inactive
51 | COc1ccc(-c2cc(=O)c3c(OC)c(OC)c(OC)c(OC)c3o2)c(OC)c1 |  |  | inactive | inactive |  | 15 (≈ 37.3 µM) |  | 
52 | O=C1CC(c2ccc(O)cc2)Oc2cc(O)cc(O)c21 (centres undefined) | inactive |  | inactive | inactive | inactive |  |  | 
53 | COc1cc(OC)c(-c2cc(=O)c3c(OC)c(OC)c(OC)c(OC)c3o2)cc1OC |  | Active |  | inactive |  | 13 (≈ 30.1 µM) |  | 
54 | O=c1c(O)c(-c2c(O)cccc2O)oc2ccccc12 | inactive |  | inactive |  |  | > 100 | inactive | 
55 | COc1cc(-c2cc(=O)c3c(OC)c(OC)c(OC)c(OC)c3o2)cc(OC)c1OC [HEPATAMETHOXYFLAVONE] | inactive |  | inactive | inactive | inactive | 0.5 (≈ 1.16 µM) |  | 
